Results reported in US20250122219A1 (priority 2023, published 2025).

Experiments:
HIV-1 (IIIB) = assay: Antiviral assay in MT-4 cells; assay type: cell-based; conditions: Human immunodeficiency virus 1, MT4, 120 h; HIV-1 IIIB in MT-4 cells, 5 days incubation, Cell Titer Glo; read-out: MT4 EC50
In short: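 Read-out: CellTiter-Glo luminescence after 5 days at 37 °C, reflecting survival of MT-4 cells infected with HIV-1 IIIB (1:250 fresh stock dilution) versus mock-infected. Compounds serially diluted into RPMI with 10% FBS; AZT at 5 μM served as positive control.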

[1] = Cytotoxicity assay in MT-4 cells; assay type: cell-based; conditions: human; uninfected MT-4 cells, 5 days incubation, Cell Titer Glo; read-out: MT4 CC50
In short: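 Viability read by Cell Titer Glo luminescence after 5 days at 37 °C. MT-4 cells, not infected, in complete RPMI (10% FBS), received compound dilution series. Base cytotoxicity set with […] puromycin.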

SMILES: CCCCCCCCCCCCCCCCCCOC(=O)OCOc1c2n(cc(C(=O)NCc3ccc(F)cc3F)c1=O)[C@@H]1CN(C2=O)[C@@H](C)CC[C@]12CC(OC)=NO2 [Example 197, (((3′S,5S,7′R)-10′-((2,4-difluorobenzyl)carbamoyl)-3-methoxy-3′-methyl-1′,11′-dioxo-1′,4′,5′,11′-tetrahydro-3′H,4H,7′H-spiro[isoxazole-5,6′-[2,7]methanopyrido[1,2-a][1,4]diazonin]-12′-yl)oxy)methyl octadecyl carbonate]
- EC50 (HIV-1 (IIIB)): 41.2 nM
- CC50 at 5 days [1]: ≥ 50000 nM

SMILES: COC1=NO[C@@]2(CC[C@H](C)N3C[C@H]2n2cc(C(=O)NCc4ccc(F)cc4F)c(=O)c(OCOC(=O)OC(C)C)c2C3=O)C1 [Example 198, (((3′S,5S,7′R)-10′-((2,4-difluorobenzyl)carbamoyl)-3-methoxy-3′-methyl-1′,11′-dioxo-1′,4′,5′,11′-tetrahydro-3′H,4H,7′H-spiro[isoxazole-5,6′-[2,7]methanopyrido[1,2-a][1,4]diazonin]-12′-yl)oxy)methyl isopropyl carbonate]
- EC50 (HIV-1 (IIIB)): 6.29 nM
- CC50 at 5 days [1]: ≥ 50000 nM

SMILES: CC1=NO[C@@]2(CC[C@H](C)N3C[C@H]2n2cc(C(=O)NCc4ccc(F)cc4F)c(=O)c(OCOC(=O)OCC(C)C)c2C3=O)C1 [Example 199, (((3′S,5S,7′R)-10′-((2,4-difluorobenzyl)carbamoyl)-3,3′-dimethyl-1′,11′-dioxo-1′,4′,5′,11′-tetrahydro-3′H,4H,7′H-spiro[isoxazole-5,6′-[2,7]methanopyrido[1,2-a][1,4]diazonin]-12′-yl)oxy)methyl isobutyl carbonate]
- EC50 (HIV-1 (IIIB)): 3.87 nM
- CC50 at 5 days [1]: 15500 nM

SMILES: COC1=NO[C@@]2(CC[C@H](C)N3C[C@H]2n2cc(C(=O)NCc4ccc(F)cc4F)c(=O)c(OCOC(=O)OCC(C)C)c2C3=O)C1 [Example 200, (((3′S,5S,7′R)-10′-((2,4-difluorobenzyl)carbamoyl)-3-methoxy-3′-methyl-1′,11′-dioxo-1′,4′,5′,11′-tetrahydro-3′H,4H,7′H-spiro[isoxazole-5,6′-[2,7]methanopyrido[1,2-a][1,4]diazonin]-12′-yl)oxy)methyl isobutyl carbonate]
- EC50 (HIV-1 (IIIB)): 1.9 nM
- CC50 at 5 days [1]: 15200 nM

SMILES: CC1=NO[C@@]2(CC[C@H](C)N3C[C@H]2n2cc(C(=O)NCc4ccc(F)cc4F)c(=O)c(OCOC(=O)OCCC(C)C)c2C3=O)C1 [Example 201, (((3′S,5S,7′R)-10′-((2,4-difluorobenzyl)carbamoyl)-3,3′-dimethyl-1′,11′-dioxo-1′,4′,5′,11′-tetrahydro-3′H,4H,7′H-spiro[isoxazole-5,6′-[2,7]methanopyrido[1,2-a][1,4]diazonin]-12′-yl)oxy)methyl isopentyl carbonate]
- EC50 (HIV-1 (IIIB)): 4.47 nM
- CC50 at 5 days [1]: 16900 nM

SMILES: COC1=NO[C@@]2(CC[C@H](C)N3C[C@H]2n2cc(C(=O)NCc4ccc(F)cc4F)c(=O)c(OCOC(=O)OCCC(C)C)c2C3=O)C1 [Example 202, (((3′S,5S,7′R)-10′-((2,4-difluorobenzyl)carbamoyl)-3-methoxy-3′-methyl-1′,11′-dioxo-1′,4′,5′,11′-tetrahydro-3′H,4H,7′H-spiro[isoxazole-5,6′-[2,7]methanopyrido[1,2-a][1,4]diazonin]-12′-yl)oxy)methyl isopentyl carbonate]
- EC50 (HIV-1 (IIIB)): 2.71 nM
- CC50 at 5 days [1]: 21600 nM

SMILES: CC1=NO[C@@]2(CC[C@H](C)N3C[C@H]2n2cc(C(=O)NCc4ccc(F)cc4F)c(=O)c(OCOC(=O)OCCCC(C)C)c2C3=O)C1 [Example 203, (((3′S,5S,7′R)-10′-((2,4-difluorobenzyl)carbamoyl)-3,3′-dimethyl-1′,11′-dioxo-1′,4′,5′,11′-tetrahydro-3′H,4H,7′H-spiro[isoxazole-5,6′-[2,7]methanopyrido[1,2-a][1,4]diazonin]-12′-yl)oxy)methyl (4-methylpentyl) carbonate]
- EC50 (HIV-1 (IIIB)): 3.56 nM
- CC50 at 5 days [1]: 26400 nM

SMILES: COC1=NO[C@@]2(CC[C@H](C)N3C[C@H]2n2cc(C(=O)NCc4ccc(F)cc4F)c(=O)c(OCOC(=O)OCCCC(C)C)c2C3=O)C1 [Example 204, (((3′S,5S,7′R)-10′-((2,4-difluorobenzyl)carbamoyl)-3-methoxy-3′-methyl-1′,11′-dioxo-1′,4′,5′,11′-tetrahydro-3′H,4H,7′H-spiro[isoxazole-5,6′-[2,7]methanopyrido[1,2-a][1,4]diazonin]-12′-yl)oxy)methyl (4-methylpentyl) carbonate]
- EC50 (HIV-1 (IIIB)): 3.82 nM
- CC50 at 5 days [1]: 29800 nM

SMILES: CC1=NO[C@@]2(CC[C@H](C)N3C[C@H]2n2cc(C(=O)NCc4ccc(F)cc4F)c(=O)c(OCOC(=O)OCCCCC(C)C)c2C3=O)C1 [Example 205, (((3′S,5S,7′R)-10′-((2,4-difluorobenzyl)carbamoyl)-3,3′-dimethyl-1′,11′-dioxo-1′,4′,5′,11′-tetrahydro-3′H,4H,7′H-spiro[isoxazole-5,6′-[2,7]methanopyrido[1,2-a][1,4]diazonin]-12′-yl)oxy)methyl (5-methylhexyl) carbonate]
- EC50 (HIV-1 (IIIB)): 2.47 nM
- CC50 at 5 days [1]: 23100 nM

SMILES: COC1=NO[C@@]2(CC[C@H](C)N3C[C@H]2n2cc(C(=O)NCc4ccc(F)cc4F)c(=O)c(OCOC(=O)OCCCCC(C)C)c2C3=O)C1 [Example 206, (((3′S,5S,7′R)-10′-((2,4-difluorobenzyl)carbamoyl)-3-methoxy-3′-methyl-1′,11′-dioxo-1′,4′,5′,11′-tetrahydro-3′H,4H,7′H-spiro[isoxazole-5,6′-[2,7]methanopyrido[1,2-a][1,4]diazonin]-12′-yl)oxy)methyl (5-methylhexyl) carbonate]
- EC50 (HIV-1 (IIIB)): 2.44 nM
- CC50 at 5 days [1]: 37200 nM

SMILES: CC1=NO[C@@]2(CC[C@H](C)N3C[C@H]2n2cc(C(=O)NCc4ccc(F)cc4F)c(=O)c(OCOC(=O)OCCCCCC(C)C)c2C3=O)C1 [Example 207, (((3′S,5S,7′R)-10′-((2,4-difluorobenzyl)carbamoyl)-3,3′-dimethyl-1′,11′-dioxo-1′,4′,5′,11′-tetrahydro-3′H,4H,7′H-spiro[isoxazole-5,6′-[2,7]methanopyrido[1,2-a][1,4]diazonin]-12′-yl)oxy)methyl (6-methylheptyl) carbonate]
- EC50 (HIV-1 (IIIB)): 0.564 nM
- CC50 at 5 days [1]: 11300 nM

SMILES: COC1=NO[C@@]2(CC[C@H](C)N3C[C@H]2n2cc(C(=O)NCc4ccc(F)cc4F)c(=O)c(OCOC(=O)OCCCCCC(C)C)c2C3=O)C1 [Example 208, (((3′S,5S,7′R)-10′-((2,4-difluorobenzyl)carbamoyl)-3-methoxy-3′-methyl-1′,11′-dioxo-1′,4′,5′,11′-tetrahydro-3′H,4H,7′H-spiro[isoxazole-5,6′-[2,7]methanopyrido[1,2-a][1,4]diazonin]-12′-yl)oxy)methyl (6-methylheptyl) carbonate]
- EC50 (HIV-1 (IIIB)): 0.594 nM
- CC50 at 5 days [1]: 21300 nM

SMILES: CC1=NO[C@@]2(CC[C@H](C)N3C[C@H]2n2cc(C(=O)NCc4ccc(F)cc4F)c(=O)c(OCOC(=O)OCCCCCCCC(C)C)c2C3=O)C1 [Example 211, (((3′S,5S,7′R)-10′-((2,4-difluorobenzyl)carbamoyl)-3,3′-dimethyl-1′,11′-dioxo-1′,4′,5′,11′-tetrahydro-3′H,4H,7′H-spiro[isoxazole-5,6′-[2,7]methanopyrido[1,2-a][1,4]diazonin]-12′-yl)oxy)methyl (8-methylnonyl) carbonate]
- EC50 (HIV-1 (IIIB)): 3.73 nM
- CC50 at 5 days [1]: 36700 nM

SMILES: COC1=NO[C@@]2(CC[C@H](C)N3C[C@H]2n2cc(C(=O)NCc4ccc(F)cc4F)c(=O)c(OCOC(=O)OCCCCCCCC(C)C)c2C3=O)C1 [Example 212, (((3′S,5S,7′R)-10′-((2,4-difluorobenzyl)carbamoyl)-3-methoxy-3′-methyl-1′,11′-dioxo-1′,4′,5′,11′-tetrahydro-3′H,4H,7′H-spiro[isoxazole-5,6′-[2,7]methanopyrido[1,2-a][1,4]diazonin]-12′-yl)oxy)methyl (8-methylnonyl) carbonate]
- EC50 (HIV-1 (IIIB)): 8.6 nM
- CC50 at 5 days [1]: ≥ 50000 nM

SMILES: COC[C@@H](C)OC(=O)OCOc1c2n(cc(C(=O)NCc3ccc(F)cc3F)c1=O)[C@@H]1CN(C2=O)[C@@H](C)CC[C@]12CC(C)=NO2 [Example 213, (((3′S,5S,7′R)-10′-((2,4-difluorobenzyl)carbamoyl)-3,3′-dimethyl-1′,11′-dioxo-1′,4′,5′,11′-tetrahydro-3′H,4H,7′H-spiro[isoxazole-5,6′-[2,7]methanopyrido[1,2-a][1,4]diazonin]-12′-yl)oxy)methyl ((R)-1-methoxypropan-2-yl) carbonate]
- EC50 (HIV-1 (IIIB)): 8.29 nM
- CC50 at 5 days [1]: ≥ 50000 nM

SMILES: COC[C@@H](C)OC(=O)OCOc1c2n(cc(C(=O)NCc3ccc(F)cc3F)c1=O)[C@@H]1CN(C2=O)[C@@H](C)CC[C@]12CC(OC)=NO2 [Example 214, (((3′S,5S,7′R)-10′-((2,4-difluorobenzyl)carbamoyl)-3-methoxy-3′-methyl-1′,11′-dioxo-1′,4′,5′,11′-tetrahydro-3′H,4H,7′H-spiro[isoxazole-5,6′-[2,7]methanopyrido[1,2-a][1,4]diazonin]-12′-yl)oxy)methyl ((R)-1-methoxypropan-2-yl) carbonate]
- EC50 (HIV-1 (IIIB)): 6.25 nM
- CC50 at 5 days [1]: ≥ 50000 nM

SMILES: COC1=NO[C@@]2(CC[C@H](C)N3C[C@H]2n2cc(C(=O)NCc4ccc(F)cc4F)c(=O)c(OCOC(=O)OC[C@@H](C)OC)c2C3=O)C1 [Example 218, (((3′S,5S,7′R)-10′-((2,4-difluorobenzyl)carbamoyl)-3-methoxy-3′-methyl-1′,11′-dioxo-1′,4′,5′,11′-tetrahydro-3′H,4H,7′H-spiro[isoxazole-5,6′-[2,7]methanopyrido[1,2-a][1,4]diazonin]-12′-yl)oxy)methyl ((R)-2-methoxypropyl) carbonate]
- EC50 (HIV-1 (IIIB)): 3.09 nM
- CC50 at 5 days [1]: 32500 nM
